# Reference: ChEMBL document CHEMBL5338704, “Discovery of novel phenylhydrazone-based oxindole-thiolazoles as potent antibacterial agents toward Pseudomonas aeruginosa” (Eur J Med Chem, 2022)
# System: Staphylococcus aureus
# Assay: Antibacterial activity against methicillin resistant Staphylococcus aureus assessed as inhibition of bacterial growth by micro-broth dilution assay
# Assay type: functional
# Conditions: not given
row,SMILES,MIC [µg/mL]
1,O=C1C(=O)N(CC(O)CSc2nc[nH]n2)c2ccccc21 (centres undefined),64
2,O=C(O)c1ccc(N/N=C2\C(=O)N(CC(O)CSc3nc[nH]n3)c3ccccc32)cc1 (centres undefined),4
3,Cc1ccc(N/N=C2\C(=O)N(CC(O)CSc3nc[nH]n3)c3ccccc32)cc1 (centres undefined),16
4,Cc1ccc(N/N=C2\C(=O)N(CC(O)CSc3nccn3C)c3ccccc32)cc1 (centres undefined),256
5,Cn1nnnc1SCC(O)CN1C(=O)/C(=N\Nc2ccc([N+](=O)[O-])cc2)c2ccccc21 (centres undefined),8
6,Cn1ccnc1SCC(O)CN1C(=O)/C(=N\Nc2ccccc2)c2ccccc21 (centres undefined),128
7,O=C1/C(=N\Nc2ccc(Cl)cc2)c2ccccc2N1CC(O)CSc1nc[nH]n1 (centres undefined),16

# System: Staphylococcus aureus
# Assay: Antibacterial activity against Staphylococcus aureus assessed as inhibition of bacterial growth by micro-broth dilution assay
# Assay type: functional
# Conditions: not given
row,SMILES,MIC [µg/mL]
1,O=C1C(=O)N(CC(O)CSc2nc[nH]n2)c2ccccc21 (centres undefined),128
2,O=C(O)c1ccc(N/N=C2\C(=O)N(CC(O)CSc3nc[nH]n3)c3ccccc32)cc1 (centres undefined),64
3,Cc1ccc(N/N=C2\C(=O)N(CC(O)CSc3nc[nH]n3)c3ccccc32)cc1 (centres undefined),32
4,Cc1ccc(N/N=C2\C(=O)N(CC(O)CSc3nccn3C)c3ccccc32)cc1 (centres undefined),128
5,Cn1nnnc1SCC(O)CN1C(=O)/C(=N\Nc2ccc([N+](=O)[O-])cc2)c2ccccc21 (centres undefined),64
6,Cn1ccnc1SCC(O)CN1C(=O)/C(=N\Nc2ccccc2)c2ccccc21 (centres undefined),128
7,O=C1/C(=N\Nc2ccc(Cl)cc2)c2ccccc2N1CC(O)CSc1nc[nH]n1 (centres undefined),32

# System: Staphylococcus aureus
# Assay: Antibacterial activity against Staphylococcus aureus ATCC 25923 assessed as inhibition of bacterial growth by micro-broth dilution assay
# Assay type: functional
# Conditions: not given
row,SMILES,MIC [µg/mL]
1,O=C1C(=O)N(CC(O)CSc2nc[nH]n2)c2ccccc21 (centres undefined),32
2,O=C(O)c1ccc(N/N=C2\C(=O)N(CC(O)CSc3nc[nH]n3)c3ccccc32)cc1 (centres undefined),8
3,Cc1ccc(N/N=C2\C(=O)N(CC(O)CSc3nc[nH]n3)c3ccccc32)cc1 (centres undefined),4
4,Cc1ccc(N/N=C2\C(=O)N(CC(O)CSc3nccn3C)c3ccccc32)cc1 (centres undefined),128
5,Cn1nnnc1SCC(O)CN1C(=O)/C(=N\Nc2ccc([N+](=O)[O-])cc2)c2ccccc21 (centres undefined),4
6,Cn1ccnc1SCC(O)CN1C(=O)/C(=N\Nc2ccccc2)c2ccccc21 (centres undefined),256
7,O=C1/C(=N\Nc2ccc(Cl)cc2)c2ccccc2N1CC(O)CSc1nc[nH]n1 (centres undefined),16

# System: Staphylococcus aureus
# Assay: Antibacterial activity against Staphylococcus aureus ATCC 29213 assessed as inhibition of bacterial growth by micro-broth dilution assay
# Assay type: functional
# Conditions: not given
row,SMILES,MIC [µg/mL]
1,O=C1C(=O)N(CC(O)CSc2nc[nH]n2)c2ccccc21 (centres undefined),64
2,O=C(O)c1ccc(N/N=C2\C(=O)N(CC(O)CSc3nc[nH]n3)c3ccccc32)cc1 (centres undefined),4
3,Cc1ccc(N/N=C2\C(=O)N(CC(O)CSc3nc[nH]n3)c3ccccc32)cc1 (centres undefined),8
4,Cc1ccc(N/N=C2\C(=O)N(CC(O)CSc3nccn3C)c3ccccc32)cc1 (centres undefined),256
5,Cn1nnnc1SCC(O)CN1C(=O)/C(=N\Nc2ccc([N+](=O)[O-])cc2)c2ccccc21 (centres undefined),16
6,Cn1ccnc1SCC(O)CN1C(=O)/C(=N\Nc2ccccc2)c2ccccc21 (centres undefined),128
7,O=C1/C(=N\Nc2ccc(Cl)cc2)c2ccccc2N1CC(O)CSc1nc[nH]n1 (centres undefined),8

# System: Enterococcus faecalis
# Assay: Antibacterial activity against Enterococcus faecalis assessed as inhibition of bacterial growth by micro-broth dilution assay
# Assay type: functional
# Conditions: not given
row,SMILES,MIC [µg/mL]
1,O=C1C(=O)N(CC(O)CSc2nc[nH]n2)c2ccccc21 (centres undefined),64
2,O=C(O)c1ccc(N/N=C2\C(=O)N(CC(O)CSc3nc[nH]n3)c3ccccc32)cc1 (centres undefined),2
3,Cc1ccc(N/N=C2\C(=O)N(CC(O)CSc3nc[nH]n3)c3ccccc32)cc1 (centres undefined),2
4,Cc1ccc(N/N=C2\C(=O)N(CC(O)CSc3nccn3C)c3ccccc32)cc1 (centres undefined),128
5,Cn1nnnc1SCC(O)CN1C(=O)/C(=N\Nc2ccc([N+](=O)[O-])cc2)c2ccccc21 (centres undefined),8
6,Cn1ccnc1SCC(O)CN1C(=O)/C(=N\Nc2ccccc2)c2ccccc21 (centres undefined),128
7,O=C1/C(=N\Nc2ccc(Cl)cc2)c2ccccc2N1CC(O)CSc1nc[nH]n1 (centres undefined),4

# System: Klebsiella pneumoniae
# Assay: Antibacterial activity against Klebsiella pneumoniae assessed as inhibition of bacterial growth by micro-broth dilution assay
# Assay type: functional
# Conditions: not given
row,SMILES,MIC [µg/mL]
1,O=C1C(=O)N(CC(O)CSc2nc[nH]n2)c2ccccc21 (centres undefined),32
2,O=C(O)c1ccc(N/N=C2\C(=O)N(CC(O)CSc3nc[nH]n3)c3ccccc32)cc1 (centres undefined),2
3,Cc1ccc(N/N=C2\C(=O)N(CC(O)CSc3nc[nH]n3)c3ccccc32)cc1 (centres undefined),32
4,Cc1ccc(N/N=C2\C(=O)N(CC(O)CSc3nccn3C)c3ccccc32)cc1 (centres undefined),128
5,Cn1nnnc1SCC(O)CN1C(=O)/C(=N\Nc2ccc([N+](=O)[O-])cc2)c2ccccc21 (centres undefined),16
6,Cn1ccnc1SCC(O)CN1C(=O)/C(=N\Nc2ccccc2)c2ccccc21 (centres undefined),128
7,O=C1/C(=N\Nc2ccc(Cl)cc2)c2ccccc2N1CC(O)CSc1nc[nH]n1 (centres undefined),4

# System: Escherichia coli
# Assay: Antibacterial activity against Escherichia coli assessed as inhibition of bacterial growth by micro-broth dilution assay
# Assay type: functional
# Conditions: not given
row,SMILES,MIC [µg/mL]
1,O=C1C(=O)N(CC(O)CSc2nc[nH]n2)c2ccccc21 (centres undefined),64
2,O=C(O)c1ccc(N/N=C2\C(=O)N(CC(O)CSc3nc[nH]n3)c3ccccc32)cc1 (centres undefined),8
3,Cc1ccc(N/N=C2\C(=O)N(CC(O)CSc3nc[nH]n3)c3ccccc32)cc1 (centres undefined),32
4,Cc1ccc(N/N=C2\C(=O)N(CC(O)CSc3nccn3C)c3ccccc32)cc1 (centres undefined),64
5,Cn1nnnc1SCC(O)CN1C(=O)/C(=N\Nc2ccc([N+](=O)[O-])cc2)c2ccccc21 (centres undefined),64
6,Cn1ccnc1SCC(O)CN1C(=O)/C(=N\Nc2ccccc2)c2ccccc21 (centres undefined),128
7,O=C1/C(=N\Nc2ccc(Cl)cc2)c2ccccc2N1CC(O)CSc1nc[nH]n1 (centres undefined),16

# System: Escherichia coli
# Assay: Antibacterial activity against Escherichia coli ATCC 25922 assessed as inhibition of bacterial growth by micro-broth dilution assay
# Assay type: functional
# Conditions: not given
row,SMILES,MIC [µg/mL]
1,O=C1C(=O)N(CC(O)CSc2nc[nH]n2)c2ccccc21 (centres undefined),128
2,O=C(O)c1ccc(N/N=C2\C(=O)N(CC(O)CSc3nc[nH]n3)c3ccccc32)cc1 (centres undefined),32
3,Cc1ccc(N/N=C2\C(=O)N(CC(O)CSc3nc[nH]n3)c3ccccc32)cc1 (centres undefined),32
4,Cc1ccc(N/N=C2\C(=O)N(CC(O)CSc3nccn3C)c3ccccc32)cc1 (centres undefined),128
5,Cn1nnnc1SCC(O)CN1C(=O)/C(=N\Nc2ccc([N+](=O)[O-])cc2)c2ccccc21 (centres undefined),16
6,Cn1ccnc1SCC(O)CN1C(=O)/C(=N\Nc2ccccc2)c2ccccc21 (centres undefined),128
7,O=C1/C(=N\Nc2ccc(Cl)cc2)c2ccccc2N1CC(O)CSc1nc[nH]n1 (centres undefined),8

# System: Pseudomonas aeruginosa
# Assay: Antibacterial activity against Pseudomonas aeruginosa assessed as inhibition of bacterial growth by micro-broth dilution assay
# Assay type: functional
# Conditions: not given
row,SMILES,MIC [µg/mL]
1,O=C1C(=O)N(CC(O)CSc2nc[nH]n2)c2ccccc21 (centres undefined),16
2,O=C(O)c1ccc(N/N=C2\C(=O)N(CC(O)CSc3nc[nH]n3)c3ccccc32)cc1 (centres undefined),64
3,Cc1ccc(N/N=C2\C(=O)N(CC(O)CSc3nc[nH]n3)c3ccccc32)cc1 (centres undefined),64
4,Cc1ccc(N/N=C2\C(=O)N(CC(O)CSc3nccn3C)c3ccccc32)cc1 (centres undefined),128
5,Cn1nnnc1SCC(O)CN1C(=O)/C(=N\Nc2ccc([N+](=O)[O-])cc2)c2ccccc21 (centres undefined),2
6,Cn1ccnc1SCC(O)CN1C(=O)/C(=N\Nc2ccccc2)c2ccccc21 (centres undefined),256
7,O=C1/C(=N\Nc2ccc(Cl)cc2)c2ccccc2N1CC(O)CSc1nc[nH]n1 (centres undefined),16

# System: Pseudomonas aeruginosa
# Assay: Antibacterial activity against Pseudomonas aeruginosa ATCC 27853 assessed as inhibition of bacterial growth by micro-broth dilution assay
# Assay type: functional
# Conditions: not given
row,SMILES,MIC [µg/mL]
1,O=C1C(=O)N(CC(O)CSc2nc[nH]n2)c2ccccc21 (centres undefined),128
2,O=C(O)c1ccc(N/N=C2\C(=O)N(CC(O)CSc3nc[nH]n3)c3ccccc32)cc1 (centres undefined),16
3,Cc1ccc(N/N=C2\C(=O)N(CC(O)CSc3nc[nH]n3)c3ccccc32)cc1 (centres undefined),8
4,Cc1ccc(N/N=C2\C(=O)N(CC(O)CSc3nccn3C)c3ccccc32)cc1 (centres undefined),256
5,Cn1nnnc1SCC(O)CN1C(=O)/C(=N\Nc2ccc([N+](=O)[O-])cc2)c2ccccc21 (centres undefined),4
6,Cn1ccnc1SCC(O)CN1C(=O)/C(=N\Nc2ccccc2)c2ccccc21 (centres undefined),128
7,O=C1/C(=N\Nc2ccc(Cl)cc2)c2ccccc2N1CC(O)CSc1nc[nH]n1 (centres undefined),32

# System: Acinetobacter baumannii
# Assay: Antibacterial activity against Acinetobacter baumannii assessed as inhibition of bacterial growth by micro-broth dilution assay
# Assay type: functional
# Conditions: not given
row,SMILES,MIC [µg/mL]
1,O=C1C(=O)N(CC(O)CSc2nc[nH]n2)c2ccccc21 (centres undefined),64
2,O=C(O)c1ccc(N/N=C2\C(=O)N(CC(O)CSc3nc[nH]n3)c3ccccc32)cc1 (centres undefined),16
3,Cc1ccc(N/N=C2\C(=O)N(CC(O)CSc3nc[nH]n3)c3ccccc32)cc1 (centres undefined),16
4,Cc1ccc(N/N=C2\C(=O)N(CC(O)CSc3nccn3C)c3ccccc32)cc1 (centres undefined),128
5,Cn1nnnc1SCC(O)CN1C(=O)/C(=N\Nc2ccc([N+](=O)[O-])cc2)c2ccccc21 (centres undefined),64
6,Cn1ccnc1SCC(O)CN1C(=O)/C(=N\Nc2ccccc2)c2ccccc21 (centres undefined),128
7,O=C1/C(=N\Nc2ccc(Cl)cc2)c2ccccc2N1CC(O)CSc1nc[nH]n1 (centres undefined),128

# System: not listed separately
# Assay: Hemolytic activity in RBC (unknown origin) assessed as hemolysis
# Assay type: toxicity, cell-based, Erythrocyte
# Conditions: red blood cells (erythrocytes)
row,SMILES,HC50 [µg/mL]
1,O=C1C(=O)N(CC(O)CSc2nc[nH]n2)c2ccccc21 (centres undefined),285
2,O=C(O)c1ccc(N/N=C2\C(=O)N(CC(O)CSc3nc[nH]n3)c3ccccc32)cc1 (centres undefined),282
3,Cc1ccc(N/N=C2\C(=O)N(CC(O)CSc3nc[nH]n3)c3ccccc32)cc1 (centres undefined),416
4,Cc1ccc(N/N=C2\C(=O)N(CC(O)CSc3nccn3C)c3ccccc32)cc1 (centres undefined),358
5,Cn1nnnc1SCC(O)CN1C(=O)/C(=N\Nc2ccc([N+](=O)[O-])cc2)c2ccccc21 (centres undefined),262
6,Cn1ccnc1SCC(O)CN1C(=O)/C(=N\Nc2ccccc2)c2ccccc21 (centres undefined),441
7,O=C1/C(=N\Nc2ccc(Cl)cc2)c2ccccc2N1CC(O)CSc1nc[nH]n1 (centres undefined),350
